According to patent US20110172236A1, “SUBSTITUTED ARYL SULFONE DERIVATIVES AS CALCIUM CHANNEL BLOCKERS” (priority 2008, published 2011):

Target: T1, Human Cav2.2 channels (Homo sapiens, UniProt Q00975)
T1 construct: expressed in transfected cells
Experiment: Fluorescent assay for Cav2.2 channels using potassium depolarization (Assay Example 1)
Type: cell-based
Details: pre-incubation potassium concentration not stated
Description: Assay Example 1: Fluorescent Assay for Cav2.2 Channels Using Potassium Depolarization to Initiate Channel Opening.
Human Cav2.2 channels were stably expressed in KEK293 cells along with alpha2-delta and beta subunits of voltage-gated calcium channels. An inwardly rectifying potassium channel (Kir2.3) was also expressed in these cells to allow more precise control of the cell membrane potential by extracellular potassium concentration. At low bath potassium concentration, the membrane potential is relatively negative, and is depolarized as the bath potassium concentration is raised. In this way, the bath potassium concentration can be used to regulate the voltage-dependent conformations of the channels. Compounds are incubated with cells in the presence of low (4 mM) potassium or elevated (12, 25 or 30 mM) potassium to determine the affinity for compound block of resting (closed) channels at 4 mM potassium or affinity for block of open and inactivated channels at 12, 25 or 30 mM potassium. After the incubation period, Cav2.2 channel opening is triggered by addition of higher concentration of potassium (70 mM final concentration) to further depolarize the cell. The degree of state-dependent block can be estimated from the inhibitory potency of compounds after incubation in different potassium concentrations.
Calcium influx through Cav2.2 channels is determined using a calcium-sensitive fluorescent dye in combination with a fluorescent plate reader. Fluorescent changes were measured with either a VIPR (Aurora Instruments) or FLIPR (Molecular Devices) plate reader.
• 1. Seed cells in Poly-D-Lysine Coated 96- or 384-well plate and keep in a 37° C.-10% CO2 incubator overnight • 2. Remove media^1, wash cells with 0.2 ml (96-well plate) or 0.05 ml (384-well plate) Dulbecco's Phosphate Buffered Saline (D-PBS) with calcium & magnesium (Invitrogen; 14040) • 3. Add 0.1 ml (96-well plate) or 0.05 ml (384-well plate) of 4 μM fluo-4 (Molecular Probes; F-14202) and 0.02% Pluronic acid (Molecular Probes; P-3000) prepared in D-PBS with calcium & magnesium (Invitrogen; 14040) supplemented with 10 mM Glucose & 10 mM Hepes/NaOH; pH 7.4 • 4. Incubate in the dark at 25° C. for 60-70 min • 5. Remove dye^2, wash cells with 0.1 ml (96-well plate) or 0.06 ml (384-well plate) of 4, 12, 25, or 30 mM Potassium Pre-polarization Buffer. (PPB) • 6. Add 0.1 ml (96-well plate) or 0.03 ml (384-well plate) of 4, 12, 25, 30 mM PPB. with or without test compound • 7. Incubate in the dark at 25° C. for 30 min • 8. Read cell plate on VIPR instrument, Excitation=480 nm, Emission 535 nm • 9. With VIPR continuously reading, add 0.1 ml (96-well plate) or 0.03 ml (384-well plate) of Depolarization Buffer, which is 2× the final assay concentration, to the cell plate.

T1 sequence (Q00975 whole entry): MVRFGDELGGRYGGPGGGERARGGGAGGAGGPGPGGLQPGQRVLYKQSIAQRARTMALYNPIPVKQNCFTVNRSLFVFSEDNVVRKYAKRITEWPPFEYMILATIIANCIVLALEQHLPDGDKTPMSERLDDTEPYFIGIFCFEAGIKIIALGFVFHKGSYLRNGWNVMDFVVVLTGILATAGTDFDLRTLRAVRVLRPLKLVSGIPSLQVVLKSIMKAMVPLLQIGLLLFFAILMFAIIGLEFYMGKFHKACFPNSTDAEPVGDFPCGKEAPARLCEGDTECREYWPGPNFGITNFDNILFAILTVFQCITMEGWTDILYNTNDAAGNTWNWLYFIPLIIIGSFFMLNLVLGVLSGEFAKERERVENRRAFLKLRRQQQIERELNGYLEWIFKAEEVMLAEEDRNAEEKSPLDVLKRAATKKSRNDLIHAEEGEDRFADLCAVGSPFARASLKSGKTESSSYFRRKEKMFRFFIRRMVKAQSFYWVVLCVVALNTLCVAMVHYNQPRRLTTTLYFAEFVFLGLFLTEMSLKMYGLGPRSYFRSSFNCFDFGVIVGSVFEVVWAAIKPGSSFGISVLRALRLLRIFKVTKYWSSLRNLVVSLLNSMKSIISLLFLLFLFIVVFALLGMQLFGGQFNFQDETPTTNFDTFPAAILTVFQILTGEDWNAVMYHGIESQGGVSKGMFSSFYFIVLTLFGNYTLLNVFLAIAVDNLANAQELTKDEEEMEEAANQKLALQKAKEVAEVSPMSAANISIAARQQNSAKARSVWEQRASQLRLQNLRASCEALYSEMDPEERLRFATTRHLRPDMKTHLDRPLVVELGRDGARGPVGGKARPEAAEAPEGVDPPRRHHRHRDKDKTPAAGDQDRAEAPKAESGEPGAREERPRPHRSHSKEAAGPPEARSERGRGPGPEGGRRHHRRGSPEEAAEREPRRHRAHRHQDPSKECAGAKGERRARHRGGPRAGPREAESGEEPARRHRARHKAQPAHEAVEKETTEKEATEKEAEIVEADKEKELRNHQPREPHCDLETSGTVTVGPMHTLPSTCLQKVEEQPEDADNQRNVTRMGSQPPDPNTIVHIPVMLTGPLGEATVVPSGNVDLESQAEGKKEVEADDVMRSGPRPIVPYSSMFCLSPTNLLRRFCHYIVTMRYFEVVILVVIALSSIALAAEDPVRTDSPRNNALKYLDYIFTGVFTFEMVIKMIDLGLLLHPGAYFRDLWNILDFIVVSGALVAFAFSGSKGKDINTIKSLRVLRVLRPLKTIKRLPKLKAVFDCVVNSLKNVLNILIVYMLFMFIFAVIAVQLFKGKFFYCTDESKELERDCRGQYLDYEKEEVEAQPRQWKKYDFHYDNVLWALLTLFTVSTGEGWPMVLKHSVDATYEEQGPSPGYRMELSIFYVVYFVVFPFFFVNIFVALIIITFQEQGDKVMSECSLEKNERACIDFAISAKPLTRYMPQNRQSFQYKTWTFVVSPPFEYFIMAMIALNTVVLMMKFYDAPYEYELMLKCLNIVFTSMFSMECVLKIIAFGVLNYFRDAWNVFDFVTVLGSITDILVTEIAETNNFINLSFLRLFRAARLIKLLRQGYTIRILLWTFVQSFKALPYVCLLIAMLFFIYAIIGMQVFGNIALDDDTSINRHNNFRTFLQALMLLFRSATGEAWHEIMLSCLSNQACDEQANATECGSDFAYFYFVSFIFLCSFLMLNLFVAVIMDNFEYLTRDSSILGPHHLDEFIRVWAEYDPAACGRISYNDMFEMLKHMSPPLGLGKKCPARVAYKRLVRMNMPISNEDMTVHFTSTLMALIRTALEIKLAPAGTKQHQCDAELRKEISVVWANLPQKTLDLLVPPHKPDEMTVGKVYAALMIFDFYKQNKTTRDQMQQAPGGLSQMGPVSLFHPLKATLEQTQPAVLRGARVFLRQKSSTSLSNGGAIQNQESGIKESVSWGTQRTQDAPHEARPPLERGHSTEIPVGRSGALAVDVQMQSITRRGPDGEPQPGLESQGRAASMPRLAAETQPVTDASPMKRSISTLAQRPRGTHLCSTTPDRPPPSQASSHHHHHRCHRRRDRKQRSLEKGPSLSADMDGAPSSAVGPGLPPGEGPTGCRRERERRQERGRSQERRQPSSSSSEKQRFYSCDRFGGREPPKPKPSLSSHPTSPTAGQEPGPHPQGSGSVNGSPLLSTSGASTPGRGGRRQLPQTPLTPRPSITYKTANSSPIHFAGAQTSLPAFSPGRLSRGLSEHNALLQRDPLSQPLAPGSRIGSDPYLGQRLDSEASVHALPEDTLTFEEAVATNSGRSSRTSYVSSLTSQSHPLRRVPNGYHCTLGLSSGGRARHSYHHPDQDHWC

Row | SMILES | IC50
1 | CC(C)([C@H]1CCN(c2ccc(C(F)(F)F)cn2)C(=O)C1)S(=O)(=O)c1cccc(C(F)(F)F)c1 | 640 nM
2 | CC(C)(C1CCC(=O)N(Cc2ccc(Cl)cc2)C1)S(=O)(=O)c1cccc(C(F)(F)F)c1 (stereo not drawn) | 890 nM
3 | CC(C)(C1CC(=O)N(c2ccc(C(F)(F)F)cc2)C1)S(=O)(=O)c1cccc(C(F)(F)F)c1 (stereo not drawn) | 790 nM

Now those with a lower IC50, led by results:

Row | IC50 | SMILES
4 | 360 nM | CC(C)(C1CCN(c2ccccc2)C(=O)C1)S(=O)(=O)c1cccc(C(F)(F)F)c1 (stereo not drawn)
5 | 280 nM | CC(C)([C@@H]1CCN(c2ccc(C(F)(F)F)cn2)C(=O)C1)S(=O)(=O)c1cccc(C(F)(F)F)c1
6 | 220 nM | CC(C)(C1CCN(Cc2ccc(F)cc2)C(=O)C1)S(=O)(=O)c1cccc(C(F)(F)F)c1 (stereo not drawn)
